Consider 24 compounds from US9828350B2, “5,6-dihydro-2H-[1,4]oxazin-3-yl-amine derivatives useful as inhibitors of beta-secretase (BACE)” (Janssen Pharmaceutica NV, priority 2010, dated 2017).

Structures are written as SMILES.

In assay [1] the target is recombinant BACE1 protein (Homo sapiens, UniProt P56817). As to the kind of experiment: Biochemical FRET based assay. To be noted: recombinant BACE1 1 μg/ml, 120 minutes at room temperature, pH 5.0; for IC50: read-out: Biochemical FRET based assay pIC50 (converted). The source says:
Biochemical FRET Based Assay
This assay is a Fluorescence Resonance Energy Transfer Assay (FRET) based assay. The substrate for this assay is an APP derived 13 amino acids peptide that contains the ‘Swedish’ Lys-Met/Asn-Leu mutation of the amyloid precursor protein (APP) beta-secretase cleavage site. This substrate also contains two fluorophores: (7-methoxycoumarin-4-yl) acetic acid (Mca) is a fluorescent donor with excitation wavelength at 320 nm and emission at 405 nm and 2,4-Dinitrophenyl (Dnp) is a proprietary quencher acceptor. […] Upon cleavage by BACE1, the fluorophore Mca is separated from the quenching group Dnp, restoring the full fluorescence yield of the donor. The increase in fluorescence is linearly related to the rate of proteolysis.
Briefly in a 384-well format recombinant BACE1 protein in a final concentration of 1 μg/ml is incubated for 120 minutes at room temperature with […] substrate in incubation buffer (40 mM Citrate buffer pH 5.0, 0.04% PEG, 4% DMSO) in the absence or presence of compound. Next the amount of proteolysis is directly measured by fluorescence measurement at T=0 and T=120 (excitation at 320 nm and emission at 405 nm). Results are expressed in RFU (Relative Fluorescence Units), as difference between T120 and TO.

The subject of another assay is Abeta total. The experiment in a line: Cellular αLisa assay in SKNBE2 cells, Abeta total. To be noted: incubated for 18 hours; for IC50: Homo sapiens, SKNBE2, 18 h, read-out: Cellular αLisa assay in SKNBE2 cells Abetatotal pIC50 (converted). The assay is classed as cell-based, human. On the procedure:
(§1) Cellular αLisa Assay in SKNBE2 Cells
(§2) In two αLisa assays the levels of Abeta total and Abeta 1-42 produced and secreted into the medium of human neuroblastoma SKNBE2 cells are quantified. The assay is based on the human neuroblastoma SKNBE2 expressing the wild type Amyloid Precursor Protein (hAPP695). The compounds are diluted and added to these cells, incubated for 18 hours and then measurements of Abeta 1-42 and Abeta total are taken. Abeta total and Abeta 1-42 are measured by sandwich αLisa. αLisa is a sandwich assay using biotinylated antibody AbN/25 attached to streptavidin coated beads and antibody Ab4G8 or cAb42/26 conjugated acceptor beads for the detection of Abeta total and Abeta 1-42 respectively. In the presence of Abeta total or Abeta 1-42, the beads come into close proximity. The excitation of the donor beads provokes the release of singlet oxygen molecules that trigger a cascade of energy transfer in the acceptor beads, resulting in light emission. Light emission is measured after 1 hour incubation (excitation at […] and emission at 615 nm).

The test system of another assay is Abeta 1-42. The experiment in a line: Cellular αLisa assay in SKNBE2 cells, Abeta 1-42. The assay is classed as cell-based, human. To be noted: incubated for 18 hours; for IC50: Homo sapiens, SKNBE2, 18 h, read-out: Cellular αLisa assay in SKNBE2 cells Abeta 42 pIC50 (converted). Here is the method:
as §1, §2

Chain of recombinant BACE1 protein (P56817 46-501): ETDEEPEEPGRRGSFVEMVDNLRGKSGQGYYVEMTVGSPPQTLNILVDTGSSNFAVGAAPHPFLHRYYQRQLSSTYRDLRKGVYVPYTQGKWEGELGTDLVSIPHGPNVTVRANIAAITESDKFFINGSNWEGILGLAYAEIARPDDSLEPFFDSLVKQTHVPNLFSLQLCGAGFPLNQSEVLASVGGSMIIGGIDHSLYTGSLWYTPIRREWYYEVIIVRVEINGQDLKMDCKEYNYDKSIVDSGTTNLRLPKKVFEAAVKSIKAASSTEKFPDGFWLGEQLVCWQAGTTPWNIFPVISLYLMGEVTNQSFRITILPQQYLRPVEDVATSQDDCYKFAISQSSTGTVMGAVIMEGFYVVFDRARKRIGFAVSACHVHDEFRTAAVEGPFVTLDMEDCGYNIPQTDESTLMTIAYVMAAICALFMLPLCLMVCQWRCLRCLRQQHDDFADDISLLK

Turning to `Cc1cnc(C(=O)Nc2cccc(C3(C)COCC(N)=N3)c2)cn1` (racemic) [Compound 7], the “Biochemical FRET based assay pIC50” value in assay [1] turned out to be 5.39. Moreover, the “Cellular αLisa assay in SKNBE2 cells Abetatotal pIC50” value with Abeta total turned out to be 6.53. Further, the “Cellular αLisa assay in SKNBE2 cells Abeta 42 pIC50” value in the assay on Abeta 1-42 is recorded as 6.49.

For the compound `CC1(c2cccc(-c3cccc(C#N)c3)c2)COCC(N)=N1` (racemic) [Compound 10], the “Biochemical FRET based assay pIC50” value in assay [1] was found to be 5.12. Moreover, the “Cellular αLisa assay in SKNBE2 cells Abetatotal pIC50” value with Abeta total came to 6.58. Further, the “Cellular αLisa assay in SKNBE2 cells Abeta 42 pIC50” value in the assay on Abeta 1-42 was 6.

With `Cc1cncc(-c2cccc(C3(C)COCC(N)=N3)c2)c1` (racemic) [Compound 11], the “Biochemical FRET based assay pIC50” value in assay [1] was determined as 4.84. Also, the “Cellular αLisa assay in SKNBE2 cells Abetatotal pIC50” value in the assay with Abeta total is 6.33. Moreover, the “Cellular αLisa assay in SKNBE2 cells Abeta 42 pIC50” value in the assay with Abeta 1-42 came to 6.2.

For `CC1(c2cc(NC(=O)c3ccc(C(F)(F)F)cn3)c(F)cc2F)COCC(N)=N1` (racemic) [Compound 13], the “Biochemical FRET based assay pIC50” value in assay [1] is 5.37. Moreover, the “Cellular αLisa assay in SKNBE2 cells Abetatotal pIC50” value in the assay on Abeta total turned out to be 6.84. Further, the “Cellular αLisa assay in SKNBE2 cells Abeta 42 pIC50” value with Abeta 1-42 turned out to be 6.83.

As to `COc1cncc(-c2cccc(C3(C)COC4(CC4)C(N)=N3)c2)c1` (racemic) [Compound 16, rac-6-[3-(5-methoxypyridin-3-yl)phenyl]-6-methyl-4-oxa-7-azaspiro[2.5]oct-7-en-8-amine], the figures for the IC50 (in assay [1]; in the assay with Abeta total; in the assay with Abeta 1-42) were 2190 nM, 355 nM and 389 nM, respectively.

As for `COc1cncc(-c2cccc([C@]3(C)CO[C@@H](C)C(N)=N3)c2)c1` (racemic) [Compound 18, trans-rac-5-[3-(5-methoxypyridin-3-yl)phenyl]-2,5-dimethyl-5,6-dihydro-2H-1,4-oxazin-3-amine], the “Biochemical FRET based assay pIC50” value in assay [1] was determined as 5.54. Besides, the “Cellular αLisa assay in SKNBE2 cells Abetatotal pIC50” value in the assay with Abeta total turned out to be 6.61. The “Cellular αLisa assay in SKNBE2 cells Abeta 42 pIC50” value in the assay with Abeta 1-42 turned out to be 6.57.

`COc1cncc(-c2cccc([C@@]3(C)CO[C@@H](C)C(N)=N3)c2)c1` (racemic) [Compound 19, cis-rac-5-[3-(5-methoxypyridin-3-yl)phenyl]-2,5-dimethyl-5,6-dihydro-2H-1,4-oxazin-3-amine]: the “Biochemical FRET based assay pIC50” value in assay [1] was determined as 5.38. Besides, the “Cellular αLisa assay in SKNBE2 cells Abetatotal pIC50” value with Abeta total is 6.352. Further, in the assay with Abeta 1-42, the “Cellular αLisa assay in SKNBE2 cells Abeta 42 pIC50” value came out at 6.29.

Turning to `C[C@H]1OC[C@](C)(c2cccc(NC(=O)c3ccc(Cl)cn3)c2)N=C1N` (racemic) [Compound 20, trans-rac-N-[3-(5-Amino-3,6-dimethyl-3,6-dihydro-2H-1,4-oxazin-3-yl)phenyl]-5-chloropyridine-2-carboxamide], the “Biochemical FRET based assay pIC50” value in assay [1] came to 6.78. Moreover, the “Cellular αLisa assay in SKNBE2 cells Abetatotal pIC50” value in the assay on Abeta total came out at 7.86. The “Cellular αLisa assay in SKNBE2 cells Abeta 42 pIC50” value in the assay on Abeta 1-42 came to 7.81.

For `CC1(c2cccc(NC(=O)c3ccc(C#N)cc3)c2)COCC(N)=N1.Cl` (racemic) [Compound 42], the “Biochemical FRET based assay pIC50” value in assay [1] turned out to be 5.74. Moreover, in the assay with Abeta total, the “Cellular αLisa assay in SKNBE2 cells Abetatotal pIC50” value worked out at 5.9. In the assay on Abeta 1-42, the “Cellular αLisa assay in SKNBE2 cells Abeta 42 pIC50” value came to 5.85.

In the case of `CC1(c2cc(-c3cncnc3)ccc2F)COCC(N)=N1` (racemic) [Compound 58], the “Biochemical FRET based assay pIC50” value in assay [1] was found to be 5.11. For the same compound, the “Cellular αLisa assay in SKNBE2 cells Abetatotal pIC50” value in the assay on Abeta total is given as 6.68. Besides, the “Cellular αLisa assay in SKNBE2 cells Abeta 42 pIC50” value in the assay with Abeta 1-42 was 6.7.

As for `CC1(c2cc(NC(=O)c3ccc(Cl)cn3)c(F)cc2F)COCC(N)=N1` (racemic) [Compound 60], the “Biochemical FRET based assay pIC50” value in assay [1] is 5.65. The “Cellular αLisa assay in SKNBE2 cells Abetatotal pIC50” value in the assay with Abeta total is 6.92. The “Cellular αLisa assay in SKNBE2 cells Abeta 42 pIC50” value in the assay on Abeta 1-42 was determined as 6.89.

Take `COc1cncc(-c2ccc(F)c(C3(C)COCC(N)=N3)c2)c1` (racemic) [Compound 63]: the “Biochemical FRET based assay pIC50” value in assay [1] is 5.46. The “Cellular αLisa assay in SKNBE2 cells Abetatotal pIC50” value with Abeta total came to 6.9. For the same compound, the “Cellular αLisa assay in SKNBE2 cells Abeta 42 pIC50” value with Abeta 1-42 was found to be 6.94.

On to `CC1(c2cccc(NC(=O)c3ccc(C#N)cn3)c2)COCC(N)=N1` (racemic) [Compound 64], for which the “Biochemical FRET based assay pIC50” value in assay [1] is 6.41. Also, the “Cellular αLisa assay in SKNBE2 cells Abetatotal pIC50” value in the assay with Abeta total was determined as 7.37. Also, the “Cellular αLisa assay in SKNBE2 cells Abeta 42 pIC50” value with Abeta 1-42 stood at 7.36.

Turning to `COc1cncc(-c2cc(C3(C)COCC(N)=N3)c(F)cc2F)c1` (racemic) [Compound 66], in assay [1], the “Biochemical FRET based assay pIC50” value worked out at 5.69. Moreover, in the assay with Abeta total, the “Cellular αLisa assay in SKNBE2 cells Abetatotal pIC50” value came out at 7.0. Moreover, the “Cellular αLisa assay in SKNBE2 cells Abeta 42 pIC50” value in the assay on Abeta 1-42 is on record as 6.92.

For `C[C@@]1(c2cc(-c3cncnc3)c(F)cc2F)N=C(N)CO[C@H]1F` (racemic) [Compound 83, trans-rac-5-(2,4-difluoro-5-pyrimidin-5-ylphenyl)-6-fluoro-5-methyl-5,6-dihydro-2H-1,4-oxazin-3-amine], the “Biochemical FRET based assay pIC50” value in assay [1] is 6.01. For the same compound, in the assay on Abeta total, the “Cellular αLisa assay in SKNBE2 cells Abetatotal pIC50” value amounted to 6.29. Also, the “Cellular αLisa assay in SKNBE2 cells Abeta 42 pIC50” value in the assay on Abeta 1-42 was 6.29.

Regarding `C[C@@]1(c2cccc(NC(=O)c3ccc(Cl)cn3)c2)N=C(N)CO[C@H]1F` (racemic) [Compound 91, trans-rac-N-[3-(5-amino-2-fluoro-3-methyl-3,6-dihydro-2H-1,4-oxazin-3-yl)phenyl]-5-chloropyridine-2-carboxamide], in assay [1], the “Biochemical FRET based assay pIC50” value was 7.03. In the assay on Abeta total, the “Cellular αLisa assay in SKNBE2 cells Abetatotal pIC50” value amounted to 7.86. The “Cellular αLisa assay in SKNBE2 cells Abeta 42 pIC50” value in the assay on Abeta 1-42 turned out to be 7.82.

`CC1(c2cc(-c3cc(Cl)cc(Cl)c3)ccn2)COCC(N)=N1` (racemic) [Compound 121]: the “Biochemical FRET based assay pIC50” value in assay [1] was found to be 5.73. For the same compound, the “Cellular αLisa assay in SKNBE2 cells Abetatotal pIC50” value in the assay on Abeta total was 6.48. Besides, the “Cellular αLisa assay in SKNBE2 cells Abeta 42 pIC50” value in the assay with Abeta 1-42 is recorded as 6.43.

Consider `C[C@H]1OC[C@@](C)(c2cccc(NC(=O)c3ccc(Cl)cn3)c2)N=C1N` (racemic) [Compound 151, cis-rac-N-[3-(5-Amino-3,6-dimethyl-3,6-dihydro-2H-1,4-oxazin-3-yl)phenyl]-5-chloropyridine-2-carboxamide], for which the “Biochemical FRET based assay pIC50” value in assay [1] was 6.4. Further, the “Cellular αLisa assay in SKNBE2 cells Abetatotal pIC50” value with Abeta total stood at 7.83. The “Cellular αLisa assay in SKNBE2 cells Abeta 42 pIC50” value in the assay on Abeta 1-42 is 7.8.

Turning to `C[C@@]1(c2cccc(-c3cncnc3)c2)CO[C@@](C)(C(F)(F)F)C(N)=N1` (racemic) [Compound 161, trans-rac-2,5-dimethyl-5-(3-pyrimidin-5-ylphenyl)-2-(trifluoromethyl)-5,6-dihydro-2H-1,4-oxazin-3-amine], the “Biochemical FRET based assay pIC50” value in assay [1] is 4.53. Further, the “Cellular αLisa assay in SKNBE2 cells Abetatotal pIC50” value in the assay with Abeta total is under 5. Besides, the “Cellular αLisa assay in SKNBE2 cells Abeta 42 pIC50” value with Abeta 1-42 is given as under 5.

Take `C[C@]1(c2cccc(-c3cncnc3)c2)CO[C@@](C)(C(F)(F)F)C(N)=N1` (racemic) [Compound 162, cis-rac-2,5-dimethyl-5-(3-pyrimidin-5-ylphenyl)-2-(trifluoromethyl)-5,6-dihydro-2H-1,4-oxazin-3-amine]: in assay [1], the “Biochemical FRET based assay pIC50” value amounted to 5.21. The “Cellular αLisa assay in SKNBE2 cells Abetatotal pIC50” value in the assay on Abeta total was determined as 6.14. For the same compound, the “Cellular αLisa assay in SKNBE2 cells Abeta 42 pIC50” value in the assay on Abeta 1-42 came out at 6.1.

For the compound `CC1(c2cccc(NC(=O)c3ccc(Cl)cn3)c2)COC(F)(C(F)(F)F)C(N)=N1` (single isomer, unassigned) [Compound 15, (R*,R*)—N-{3-[5-amino-6-fluoro-3-methyl-6-(trifluoromethyl)-3,6-dihydro-2H-1,4-oxazin-3-yl]phenyl}-5-chloropyridine-2-carboxamide], the IC50 in assay [1] was 2750 nM; in the assay with Abeta total it was 3090 nM; in the assay with Abeta 1-42, 490 nM.

For `CC1(c2cccc(NC(=O)c3ccc(C#N)cn3)c2)COCC(N)=N1` (single isomer, unassigned) [Compound 49], the “Biochemical FRET based assay pIC50” value in assay [1] is given as 4.6. In the assay with Abeta total, the “Cellular αLisa assay in SKNBE2 cells Abetatotal pIC50” value is on record as 5.66. In addition, the “Cellular αLisa assay in SKNBE2 cells Abeta 42 pIC50” value in the assay with Abeta 1-42 is recorded as 5.68.

Regarding `CC1(c2cc(-c3cncnc3)ccc2F)COCC(N)=N1` (single isomer, unassigned) [Compound 53], the “Biochemical FRET based assay pIC50” value in assay [1] is under 4.52. Moreover, in the assay on Abeta total, the “Cellular αLisa assay in SKNBE2 cells Abetatotal pIC50” value is under 5. Besides, the “Cellular αLisa assay in SKNBE2 cells Abeta 42 pIC50” value with Abeta 1-42 amounted to 5.28.

On to `CC1(c2cc(-c3cncnc3)ccc2F)COCC(N)=N1` (single isomer, unassigned) [Compound 54], for which the “Biochemical FRET based assay pIC50” value in assay [1] is 5.41. For the same compound, in the assay on Abeta total, the “Cellular αLisa assay in SKNBE2 cells Abetatotal pIC50” value is listed as 6.65. Also, the “Cellular αLisa assay in SKNBE2 cells Abeta 42 pIC50” value with Abeta 1-42 is 6.68.
